Read-outs that look alike come from different tables or passages of the source.

This data set in a line: pharmacokinetic study, plasma and brain, after i.p. administration. Type of data set: in vivo, mice (male Albino Swiss). The settings on record: mouse, 10 mg/kg i.p.; for AUC / Cmax / half-life / Tmax: male, Albino Swiss, ip; for AUC: read-out: AUC (area under the curve); for Cmax: read-out: Cmax (maximum concentration); for half-life: read-out: T1/2 (terminal elimination half-life) (converted). As to the method: The pharmacokinetic properties and brain uptake of 52 were further determined in mice after i.p. administration. The compound was administered at a dose of 10 mg/kg in 3% DMSO + 20% Captisol in water. The concentration of 52 was monitored in the plasma and the brain at six time points over 6 h (Figure 5).
The method described below was successfully applied to a pharmacokinetic study of 52 in mice (male Albino Swiss) after i.p. injection. Compound 52 was administered to mice at a dose of 10 mg/kg i.p. At 0.25, 0.50, 1.0, 2.0, 4.0, and 6.0 h (three animals were used for one time point) the mice were anaesthetised by the use of Morbital (Biowet, Puławy, Poland), and the blood was collected from the portal vein to tubes containing 5% EDTA. The mice were then perfused with 0.1 M PBS to remove remaining blood from the body, and the brains were taken out for the analysis. Blood was centrifuged at 2000 rpm for 10 min at 4 °C, and the plasma was collected and frozen at −80 °C for further analysis. Plasma and tissue samples from all drug-treated animals were thawed at room temperature prior to use. Standard protocol of sample preparation: 200 µL of acetonitrile was added to the Eppendorf tubes with 50 µL of studied plasma samples or tissue homogenate. Samples were mixed for 5 min on a mixer at 25 °C and 1400 rpm. Tubes were then centrifuged at 2000 × g for 15 min at 4 °C. A total of 180 µL of each supernatant was transferred to a plate well. Finally, each sample was injected onto the LC-MS column. Calibration curve serial dilution method: Plasma was spiked with a standard at different concentrations. Acetonitrile was added. After mixing and centrifugation, the supernatant was collected.
Plasma and tissue samples from all drug-treated animals at selected time points were analysed using a previously developed non-validated LC-MS/MS method. […] LC-MS analysis was carried out on a Bruker amaZon SL mass spectrometer using positive/negative ion ESI mode. Chromatographic separation was achieved on an Ascentis Express C18 column (5 cm × 2.1 mm, […], Supelco Technologies) at room temperature with a thermostatted column oven. A gradient elution of eluents A (acetonitrile (LiChrosolv, Reag. Ph Eur) + 0.1% formic acid (Sigma Aldrich, 98–100%)) and B (water +0.1% formic acid) was used for separation. The flow rate was set at 1 ml/min. The injection volume was 20 µL, and the time of injection was 4 min.

As usually defined, the AUC is concentration integrated over time. Turning to `O=C(Nc1ccc(-c2noc(-c3ccccc3Cl)n2)c(Cl)c1)c1ccccn1` [Compound 52, N-(3-chloro-4-(5-(2-chlorophenyl)-1,2,4-oxadiazol-3-yl)phenyl)picolinamide], for the setting “brain”, the maximum brain concentration is 949.76 ng/mL, the AUC came out at 5.64 µM·h, the Cmax was 2120 nM and the half-life was 136 min. Further, the Tmax (brain, read-out: Tmax (converted)) is 30 min. Besides, where the note is “plasma”, the AUC is 0.37 µM·h, the Cmax was 540 nM, the half-life is 66 min and the maximum plasma concentration is 243.22 ng/mL. Further, for the setting “plasma, read-out: Tmax (time at maximum observed concentration)”, the Tmax amounted to 15 min.

(Values after article PMC8667925, “New 1,2,4-oxadiazole derivatives with positive mGlu4 receptor modulation activity and antipsychotic-like properties” (Journal of Enzyme Inhibition and Medicinal Chemistry, 2021).)
